Data taken from patent US20070009533A1 (priority 2005, published 2007).

Target: T1, MDR1 function in K562/R7 cells (Homo sapiens, UniProt P08183)
T1 construct: endogenous in cells; host or cells: K562/R7 cells
Assay type: cell-based
Experimental: The loaded and washed cells were cultured at 37° C. in 0.5 ml lacking or containing the indicated concentrations of drug for the indicated amount of time. Control cells were placed on ice immediately after loading and, as indicated by the symbol to the far right at MFI=1172, the cells had been loaded with dye.

T1 sequence (P08183 whole entry): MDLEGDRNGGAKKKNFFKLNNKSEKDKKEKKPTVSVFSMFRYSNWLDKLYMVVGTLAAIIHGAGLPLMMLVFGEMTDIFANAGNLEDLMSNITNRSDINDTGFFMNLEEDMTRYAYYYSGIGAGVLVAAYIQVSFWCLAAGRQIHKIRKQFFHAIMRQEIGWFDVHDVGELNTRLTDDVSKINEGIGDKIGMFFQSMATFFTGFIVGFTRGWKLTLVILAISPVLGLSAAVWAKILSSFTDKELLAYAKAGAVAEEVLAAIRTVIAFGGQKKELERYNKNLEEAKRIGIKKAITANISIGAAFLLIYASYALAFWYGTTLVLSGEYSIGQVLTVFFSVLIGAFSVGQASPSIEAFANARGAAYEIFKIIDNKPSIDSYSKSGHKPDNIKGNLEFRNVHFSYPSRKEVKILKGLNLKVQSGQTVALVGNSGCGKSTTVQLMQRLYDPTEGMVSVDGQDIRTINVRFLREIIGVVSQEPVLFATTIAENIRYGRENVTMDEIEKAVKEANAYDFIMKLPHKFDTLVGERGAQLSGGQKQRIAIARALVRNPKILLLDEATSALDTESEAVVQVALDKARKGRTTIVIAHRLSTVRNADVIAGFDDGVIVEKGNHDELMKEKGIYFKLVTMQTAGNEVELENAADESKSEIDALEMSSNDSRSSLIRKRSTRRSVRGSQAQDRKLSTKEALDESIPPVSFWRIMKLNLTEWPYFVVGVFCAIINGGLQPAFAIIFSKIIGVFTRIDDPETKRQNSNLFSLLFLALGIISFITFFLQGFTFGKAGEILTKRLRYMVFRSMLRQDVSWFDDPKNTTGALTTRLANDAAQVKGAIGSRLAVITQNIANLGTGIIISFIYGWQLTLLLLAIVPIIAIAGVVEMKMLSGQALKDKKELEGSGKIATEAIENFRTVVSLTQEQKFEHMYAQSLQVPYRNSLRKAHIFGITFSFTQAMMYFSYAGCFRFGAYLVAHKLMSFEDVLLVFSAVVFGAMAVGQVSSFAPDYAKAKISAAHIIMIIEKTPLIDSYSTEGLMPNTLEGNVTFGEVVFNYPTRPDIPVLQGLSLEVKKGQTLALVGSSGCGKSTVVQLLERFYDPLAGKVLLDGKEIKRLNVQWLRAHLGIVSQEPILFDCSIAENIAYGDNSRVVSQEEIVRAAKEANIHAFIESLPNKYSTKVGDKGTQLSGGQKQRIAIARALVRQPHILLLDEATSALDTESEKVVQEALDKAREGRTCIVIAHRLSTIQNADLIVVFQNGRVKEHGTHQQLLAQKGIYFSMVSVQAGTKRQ

O[C@@H](COc1cccc2ncccc12)CN1CCN([C@@H]2c3ccccc3[C@@H]3[C@H](c4ccccc42)C3(F)F)CC1 [zosuquidar]
effect on dye release during efflux incubation: inhibited dye release in a concentration-dependent manner
